Patent US8138184B2, “Isoxazole derivatives and pharmaceutical compositions comprising the same” (Kaohsiung Medical University, priority 2008, dated 2012)

What was measured:
[1] = tested on: Human adipose tissue derived stem cells (hADSCs); assay: Osteogenic differentiation and quantification of mineralization (Alizarin red S) in hADSCs; type: cell-based; conditions: 10 μM, 10 days
Procedure: (§1) Human adipose tissue derived stem cells (hADSCs), which is derived from adipose tissue, were selected an maintained in a keratinocyte SFM medium (Gibco BRL, Gaithersburg, Md.) supplemented with 5% FBS, 100 U/ml of penicillin and streptomycin.
(§2) New synthetic compounds were dissolved in DMSO to a final concentration of 10 mM and stored at −20° C. The concentration used was 10 μM and freshly diluted to the medium with a final concentration of DMSO at 0.1%. Control cultures were treated with the same amount of DMSO as used in the corresponding experiments.
Osteogenic differentiation was induced by culturing cells in an osteo-induction medium (OIM, 10% FBS, 0.1 μM dexamethasone, 10 mM β-glycerophosphate, and L-Ascorbic 2 phosphate 100 μM in low glucose DMEM) for 7-14 days. The extracellular matrix calcification was estimated by using an Alizarin red S stain (Carl, A. et al Anal. Biochem. 2004, 329, 77). The Alizarin red S-stained mineral was quantified by the osteogenesis quantification kit (CHEMICON®).

[2] = tested on: SF-268 cells (glioblastoma cells); assay: Cytotoxicity assay (MTS reduction), SF-268; type: cell-based, human; conditions: 3 days, % of DMSO control
Procedure: (§3) MCF-7 cells (human breast adenocarcinoma), NCI-H460 cells (non-small-cell lung cancer) and SF-268cells (glioblastoma cells) were cultured in a Dulbecco's modified Eagle's medium supplemented with a 10% fetal calf serum and a nonessential amino acid (Life Technologies, Inc.) and maintained at 37° C. in a humidified incubator with 5% CO2.
(§4) Human cancer cells were seeded in 96-well microtiter plates at a density of 6500, 2500 and 7500 cells/well in 100 μl of culture medium for MCF-7, NCI-H460, and SF-268, respectively. […] Cells were treated with test compounds for 3 days. Cell viability was determined by the 5-[3-(carboxymethoxy)-phenyl]-2-(4,5-dimethylthiazolyl)-3-(4-sulfophenyl)tetrazolium salt (MTS) reduction assay. Actinomycin D (10 μM, final concentration) and DMSO (0.1%, final concentration) were used as positive and vehicle controls, respectively. Results were expressed as a % of the DMSO control.

[3] = tested on: MCF-7 cells (human breast adenocarcinoma); assay: Cytotoxicity assay (MTS reduction), MCF-7; type: cell-based; conditions: 3 days, % of DMSO control
Procedure: as §3, §4

[4] = tested on: Human adipose tissue derived stem cells (hADSCs); assay: Cell viability by MTT assay in hADSCs; type: cell-based; conditions: 10 μM, % of control
Procedure: as §1, §2
The MTT assay is a calorimetric assay based on the ability of the viable cells to reduce a soluble yellow tetrazolium salt to blue formazan crystals (Carmichael, J. et. el. Cancer Research 1987, 47, 936). After compound treatments, 350 μL of MTT solution ([…] in PBS) were added to each well and incubated for 4 hrs. DMSO was then added for another 0.5 hrs to thoroughly dissolve the dark blue crystals. The absorbance at 570 nm was measured with an ELISA reader. Inhibition of mitochondrial metabolism was shown as relative activity (% of control).

[5] = tested on: NCI-H460 cells (non-small-cell lung cancer); assay: Cytotoxicity assay (MTS reduction), NCI-H460; type: cell-based, human; conditions: 3 days, % of DMSO control
Procedure: as §3, §4

[6] = tested on: Human adipose tissue derived stem cells (hADSCs); assay: Cytotoxicity assay by lactate dehydrogenase (LDH) leakage in hADSCs; type: cell-based; conditions: 10 μM, % of total cell toxicity
Procedure: as §1, §2
Lactate dehydrogenase (LDH) leakage from cells was measured to quantify the cytotoxicity by using a cytotoxicity detection kit (Roche, Germany) (Crowston, J. G. et al Invest. Ophthalmol. Vis. Sci. 1998, 39, 449). Cells were previously seeded into 48-well plates (4×10^4 cells/well). After a drug treatment, the supernatants and cell layers of the cultures were collected for assay. According to the manufacturer's guidelines for the detection kit, cell layers were lysed with 1% TritonX-100, and cell lysates and supernatants were assayed in a 96-well plate, respectively. Briefly, 100 μL of catalyst solution was added in each assay well for 20 min. Absorbance was measured with an ELISA reader with a 490 nm filter. LDH leakage was shown as relative activity (% of total cell toxicity).

Substance: 2-[4-(3,4-Dimethoxyphenyl)isoxazol-5-yl]-5-([6-(piperidin-1-yl)hexyloxy]phenol [8b]
- Mineralization (10 days) [1]: 285%
- Growth percentage SF-268 (CNS) ([2]; 4 μg/mL): 116%
- Growth percentage SF-268 (CNS) ([2]; 20 μg/mL): 15%
- Growth percentage MCF7 (Breast) ([3]; 4 μg/mL): 93%
- Growth percentage MCF7 (Breast) ([3]; 20 μg/mL): 4%
- Cell viability (3 days, MTT) [4]: 11%
- Growth percentage NCI-H460 (Lung) ([5]; 4 μg/mL): 89%
- Growth percentage NCI-H460 (Lung) ([5]; 20 μg/mL): 2%
- Cell cytotoxicity (3 days, LDH) [6]: 41%
